Results as given in US20100305068A1, “COMPOUNDS AND METHODS FOR MODULATING PROTEIN TRAFFICKING” (priority 2006, published 2010).

Tested on: pdr5 ypt1^ts cells
Test: microbe, parasite or virus in culture
Format: cell-based, yeast
Details: Saccharomyces cerevisiae; Table 2; lowest concentration tested giving growth above the 0 μM background; 37° C.; read-out: ypt1-ts MRC (minimal rescue concentration)
Method in brief: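 Whole-cell yeast growth-rescue screen: pdr5 ypt1^ts cells (efflux pump inactivated), growth-arrested at 37° C., cultured with compounds at 37° C. Restoration of growth read by optical density.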

Structure (SMILES) | minimal effective concentration
Cc1ccc(C)c(OCCCC(C)(C)C(=O)O)c1 [GEMFIBROZIL, reference compound] | 3.13 µM
COc1ccc2c(c1OC)OC[C@@H](c1ccc(OC)c(OC)c1OC)C2 [DUARTIN, DIMETHYL ETHER] | 3.13 µM
CC1(C)C(=O)C=C[C@]2(C)[C@H]3CC[C@@]4(C)[C@H](c5ccoc5)OC(=O)[C@H]5O[C@]54[C@]3(C)C=C[C@@H]12 [7-DESACETOXY-6,7- DEHYDROGEDUNIN] | 12.5 µM
COc1cc(C)c2c(=O)cc(-c3ccccc3)oc2c1 [METHOXYVONE] | 12.5 µM
CCCCC1C(=O)N(c2ccccc2)N(c2ccccc2)C1=O [PHENYLBUTAZONE, reference compound] | 6.25 µM
COC(=O)[C@]1(C)CC[C@]2(C)CC[C@]3(C)C4=CCc5c(cc(O)c(O)c5C)[C@]4(C)CC[C@@]3(C)[C@@H]2C1 [PRISTIMEROL] | 6.25 µM

Same assay, conditions: Table 2; 0.39 μM compound; 37° C.; background (0 μM) 0.058

Structure (SMILES) | optical density, ypt1-ts, 0.39
Cc1ccc(C)c(OCCCC(C)(C)C(=O)O)c1 [GEMFIBROZIL, reference compound] | 0.106
COc1ccc2c(c1OC)OC[C@@H](c1ccc(OC)c(OC)c1OC)C2 [DUARTIN, DIMETHYL ETHER] | 0.166
CC1(C)C(=O)C=C[C@]2(C)[C@H]3CC[C@@]4(C)[C@H](c5ccoc5)OC(=O)[C@H]5O[C@]54[C@]3(C)C=C[C@@H]12 [7-DESACETOXY-6,7- DEHYDROGEDUNIN] | 0.094
COc1cc(C)c2c(=O)cc(-c3ccccc3)oc2c1 [METHOXYVONE] | 0.095
CCCCC1C(=O)N(c2ccccc2)N(c2ccccc2)C1=O [PHENYLBUTAZONE, reference compound] | 0.1
COC(=O)[C@]1(C)CC[C@]2(C)CC[C@]3(C)C4=CCc5c(cc(O)c(O)c5C)[C@]4(C)CC[C@@]3(C)[C@@H]2C1 [PRISTIMEROL] | 0.11

Same assay, conditions: Table 2; 0.78 μM compound; 37° C.; background (0 μM) 0.058

Structure (SMILES) | optical density, ypt1-ts, 0.78
Cc1ccc(C)c(OCCCC(C)(C)C(=O)O)c1 [GEMFIBROZIL, reference compound] | 0.082
COc1ccc2c(c1OC)OC[C@@H](c1ccc(OC)c(OC)c1OC)C2 [DUARTIN, DIMETHYL ETHER] | 0.092
CC1(C)C(=O)C=C[C@]2(C)[C@H]3CC[C@@]4(C)[C@H](c5ccoc5)OC(=O)[C@H]5O[C@]54[C@]3(C)C=C[C@@H]12 [7-DESACETOXY-6,7- DEHYDROGEDUNIN] | 0.071
COc1cc(C)c2c(=O)cc(-c3ccccc3)oc2c1 [METHOXYVONE] | 0.09
CCCCC1C(=O)N(c2ccccc2)N(c2ccccc2)C1=O [PHENYLBUTAZONE, reference compound] | 0.084
COC(=O)[C@]1(C)CC[C@]2(C)CC[C@]3(C)C4=CCc5c(cc(O)c(O)c5C)[C@]4(C)CC[C@@]3(C)[C@@H]2C1 [PRISTIMEROL] | 0.079

Same assay, conditions: Table 2; 1.56 μM compound; 37° C.; background (0 μM) 0.058

Structure (SMILES) | optical density, ypt1-ts, 1.56
Cc1ccc(C)c(OCCCC(C)(C)C(=O)O)c1 [GEMFIBROZIL, reference compound] | 0.1
COc1ccc2c(c1OC)OC[C@@H](c1ccc(OC)c(OC)c1OC)C2 [DUARTIN, DIMETHYL ETHER] | 0.111
CC1(C)C(=O)C=C[C@]2(C)[C@H]3CC[C@@]4(C)[C@H](c5ccoc5)OC(=O)[C@H]5O[C@]54[C@]3(C)C=C[C@@H]12 [7-DESACETOXY-6,7- DEHYDROGEDUNIN] | 0.074
COc1cc(C)c2c(=O)cc(-c3ccccc3)oc2c1 [METHOXYVONE] | 0.09
CCCCC1C(=O)N(c2ccccc2)N(c2ccccc2)C1=O [PHENYLBUTAZONE, reference compound] | 0.094
COC(=O)[C@]1(C)CC[C@]2(C)CC[C@]3(C)C4=CCc5c(cc(O)c(O)c5C)[C@]4(C)CC[C@@]3(C)[C@@H]2C1 [PRISTIMEROL] | 0.101

Same assay, conditions: Table 2; 3.13 μM compound; 37° C.; background (0 μM) 0.058

Structure (SMILES) | optical density, ypt1-ts, 3.13
Cc1ccc(C)c(OCCCC(C)(C)C(=O)O)c1 [GEMFIBROZIL, reference compound] | 0.219
COc1ccc2c(c1OC)OC[C@@H](c1ccc(OC)c(OC)c1OC)C2 [DUARTIN, DIMETHYL ETHER] | 0.14
CC1(C)C(=O)C=C[C@]2(C)[C@H]3CC[C@@]4(C)[C@H](c5ccoc5)OC(=O)[C@H]5O[C@]54[C@]3(C)C=C[C@@H]12 [7-DESACETOXY-6,7- DEHYDROGEDUNIN] | 0.093
COc1cc(C)c2c(=O)cc(-c3ccccc3)oc2c1 [METHOXYVONE] | 0.105
CCCCC1C(=O)N(c2ccccc2)N(c2ccccc2)C1=O [PHENYLBUTAZONE, reference compound] | 0.11
COC(=O)[C@]1(C)CC[C@]2(C)CC[C@]3(C)C4=CCc5c(cc(O)c(O)c5C)[C@]4(C)CC[C@@]3(C)[C@@H]2C1 [PRISTIMEROL] | 0.114

Same assay, conditions: Table 2; 6.25 μM compound; 37° C.; background (0 μM) 0.058

Structure (SMILES) | optical density, ypt1-ts, 6.25
Cc1ccc(C)c(OCCCC(C)(C)C(=O)O)c1 [GEMFIBROZIL, reference compound] | 0.442
COc1ccc2c(c1OC)OC[C@@H](c1ccc(OC)c(OC)c1OC)C2 [DUARTIN, DIMETHYL ETHER] | 0.239
CC1(C)C(=O)C=C[C@]2(C)[C@H]3CC[C@@]4(C)[C@H](c5ccoc5)OC(=O)[C@H]5O[C@]54[C@]3(C)C=C[C@@H]12 [7-DESACETOXY-6,7- DEHYDROGEDUNIN] | 0.099
COc1cc(C)c2c(=O)cc(-c3ccccc3)oc2c1 [METHOXYVONE] | 0.114
COC(=O)[C@]1(C)CC[C@]2(C)CC[C@]3(C)C4=CCc5c(cc(O)c(O)c5C)[C@]4(C)CC[C@@]3(C)[C@@H]2C1 [PRISTIMEROL] | 0.168

Same assay, conditions: Table 2; 12.5 μM compound; 37° C.; background (0 μM) 0.058

Structure (SMILES) | optical density, ypt1-ts, 12.5
Cc1ccc(C)c(OCCCC(C)(C)C(=O)O)c1 [GEMFIBROZIL, reference compound] | 0.615
COc1ccc2c(c1OC)OC[C@@H](c1ccc(OC)c(OC)c1OC)C2 [DUARTIN, DIMETHYL ETHER] | 0.287
CC1(C)C(=O)C=C[C@]2(C)[C@H]3CC[C@@]4(C)[C@H](c5ccoc5)OC(=O)[C@H]5O[C@]54[C@]3(C)C=C[C@@H]12 [7-DESACETOXY-6,7- DEHYDROGEDUNIN] | 0.171
COc1cc(C)c2c(=O)cc(-c3ccccc3)oc2c1 [METHOXYVONE] | 0.142
CCCCC1C(=O)N(c2ccccc2)N(c2ccccc2)C1=O [PHENYLBUTAZONE, reference compound] | 0.227
COC(=O)[C@]1(C)CC[C@]2(C)CC[C@]3(C)C4=CCc5c(cc(O)c(O)c5C)[C@]4(C)CC[C@@]3(C)[C@@H]2C1 [PRISTIMEROL] | 0.362

Same assay, conditions: Table 2; 25 μM compound; 37° C.; background (0 μM) 0.058

Structure (SMILES) | optical density, ypt1-ts, 25
Cc1ccc(C)c(OCCCC(C)(C)C(=O)O)c1 [GEMFIBROZIL, reference compound] | 0.358
COc1ccc2c(c1OC)OC[C@@H](c1ccc(OC)c(OC)c1OC)C2 [DUARTIN, DIMETHYL ETHER] | 0.474
CC1(C)C(=O)C=C[C@]2(C)[C@H]3CC[C@@]4(C)[C@H](c5ccoc5)OC(=O)[C@H]5O[C@]54[C@]3(C)C=C[C@@H]12 [7-DESACETOXY-6,7- DEHYDROGEDUNIN] | 0.308
COc1cc(C)c2c(=O)cc(-c3ccccc3)oc2c1 [METHOXYVONE] | 0.258
CCCCC1C(=O)N(c2ccccc2)N(c2ccccc2)C1=O [PHENYLBUTAZONE, reference compound] | 0.452
COC(=O)[C@]1(C)CC[C@]2(C)CC[C@]3(C)C4=CCc5c(cc(O)c(O)c5C)[C@]4(C)CC[C@@]3(C)[C@@H]2C1 [PRISTIMEROL] | 0.591
